Structures can show the parent of a compound that is named as a salt.

As usually defined, the IC50 is the point on the concentration scale where inhibition reaches its midpoint.

The subject of the first experiment is influenza A virus (A/WSN/33 NanoLuc reporter virus) in A549 cells. In words: microbe, parasite or virus in culture. The experiment is classed as cell-based. The conditions noted are these: A549, 24 h, read-out: IC50 values of viral replication inhibition in a cell-based Luciferase Reporter Assay (LRA). Background: Reporter assays use an easily measured gene product as a stand-in for the process of interest.
As to `CC(C)N1C[C@H](C(c2ccccc2)c2ccccc2)n2c(NCc3ccccc3)nc(=O)c(O)c2C1=O` [Example 1a-1, (4S)-4-Benzhydryl-6-(benzylamino)-9-hydroxy-2-isopropyl-3,4-dihydropyrazino[1,2-c]pyrimidine-1,8-dione], the IC50 is 153 nM.
On the same count and under the same terms, the figure for `COc1ccc(CNc2nc(=O)c(O)c3n2[C@@H](C(c2ccccc2)c2ccccc2)CN(C(C)C)C3=O)cc1` [Example 1a-2, (4S)-4-Benzhydryl-9-hydroxy-2-isopropyl-6-[(4-methoxyphenyl)methylamino]-3,4-dihydropyrazino[1,2-c]pyrimidine-1,8-dione formate] is 2070 nM; for `CC(C)N1C[C@H](C(c2ccccc2)c2ccccc2)n2c(N)nc(=O)c(O)c2C1=O` [Example 1a-3, (4S)-6-Amino-4-benzhydryl-9-hydroxy-2-isopropyl-3,4-dihydropyrazino[1,2-c]pyrimidine-1,8-dione] it is above 50000 nM; for `COc1nc(=O)c(O)c2n1[C@@H](C(c1ccccc1)c1ccccc1)CN(C(C)C)C2=O` [Example 1a-4, (4S)-4-Benzhydryl-9-hydroxy-2-isopropyl-6-methoxy-3,4-dihydropyrazino[1,2-c]pyrimidine-1,8-dione] it is 14 nM.
As to `CC(C)N1C[C@H](C2c3ccccc3CCc3ccccc32)n2c(N)nc(=O)c(O)c2C1=O` [Example 1a-5, (4S)-6-Amino-4-(10,11-dihydro-5H-dibenzo[a,d][7]annulen-5-yl)-9-hydroxy-2-(propan-2-yl)-3,4-dihydro-2H-pyrazino[1,2-c]pyrimidine-1,8-dione], the IC50 is above 50000 nM.
On the same count and under the same terms, the figure for `CC(C)N1C[C@H](C(c2ccccc2)c2ccccc2)n2c(O)nc(=O)c(O)c2C1=O` [Example 1a-6, (4S)-4-Benzhydryl-6,9-dihydroxy-2-isopropyl-3,4-dihydropyrazino[1,2-c]pyrimidine-1,8-dione] is 218 nM; for `CCOc1nc(=O)c(O)c2n1[C@@H](C(c1ccccc1)c1ccccc1)CN(C(C)C)C2=O` [Example 1a-7, (4S)-4-Benzhydryl-6-ethoxy-9-hydroxy-2-isopropyl-3,4-dihydropyrazino[1,2-c]-pyrimidine-1,8-dione] it is 69 nM; for `COc1nc(=O)c(O)c2n1[C@@H](C1c3ccccc3CCc3ccccc31)CN(C(C)C)C2=O` [Example 1a-8, (4S)-4-(10,11-Dihydro-5H-dibenzo[a,d][7]annulen-5-yl)-9-hydroxy-6-methoxy-2-(propan-2-yl)-3,4-dihydro-2H-pyrazino[1,2-c]pyrimidine-1,8-dione] it is 6 nM.
With `COc1nc(=O)c(O)c2n1[C@@H](C1c3ccccc3CCc3ccccc31)CN(C)C2=O` [Example 1a-9, (4S)-4-(10,11-Dihydro-5H-dibenzo[a,d][7]annulen-5-yl)-9-hydroxy-6-methoxy-2-methyl-3,4-dihydro-2H-pyrazino[1,2-c]pyrimidine-1,8-dione], the IC50 stood at 6 nM.
For the compound `CC(C)N1C[C@H](C2c3ccccc3CCc3ccccc32)n2c(O)nc(=O)c(O)c2C1=O` [Example 1a-10, (4S)-4-(10,11-Dihydro-5H-dibenzo[a,d][7]annulen-5-yl)-6,9-dihydroxy-2-(propan-2-yl)-3,4-dihydro-2H-pyrazino[1,2-c]pyrimidine-1,8-dione], the IC50 worked out at 98 nM.
Regarding `CN1C[C@H](C2c3ccccc3CCc3ccccc32)n2c(O)nc(=O)c(O)c2C1=O` [Example 1a-11, (4S)-4-(10,11-Dihydro-5H-dibenzo[a,d][7]annulen-5-yl)-6,9-dihydroxy-2-methyl-3,4-dihydro-2H-pyrazino[1,2-c]pyrimidine-1,8-dione], the IC50 came out at 128 nM.
As for `CCOc1nc(=O)c(O)c2n1[C@@H](C1c3ccccc3CCc3ccccc31)CN(C(C)C)C2=O` [Example 1a-12, (4S)-4-(10,11-Dihydro-5H-dibenzo[a,d][7]annulen-5-yl)-6-ethoxy-9-hydroxy-2-(propan-2-yl)-3,4-dihydro-2H-pyrazino[1,2-c]pyrimidine-1,8-dione], the IC50 worked out at 24 nM.
Take `CC(C)N1C[C@H](C(c2ccccc2)c2ccccc2)n2c(OCc3ccccc3)nc(=O)c(O)c2C1=O` [Example 1a-13, (4S)-4-Benzhydryl-6-benzyloxy-9-hydroxy-2-isopropyl-3,4-dihydropyrazino[1,2-c]pyrimidine-1,8-dione]: the IC50 came to 8320 nM.
`CCCCOc1nc(=O)c(O)c2n1[C@@H](C(c1ccccc1)c1ccccc1)CN(C(C)C)C2=O` [Example 1a-15, (4S)-4-Benzhydryl-6-butoxy-9-hydroxy-2-isopropyl-3,4-dihydropyrazino[1,2-c]pyrimidine-1,8-dione]: the IC50 was 15300 nM.
`CC(=O)Nc1nc(=O)c(O)c2n1[C@@H](C(c1ccccc1)c1ccccc1)CN(C(C)C)C2=O` [Example 1a-16, N-[(4S)-4-Benzhydryl-9-hydroxy-2-isopropyl-1,8-dioxo-3,4-dihydropyrazino[1,2-c]pyrimidin-6-yl]acetamide]: the IC50 is 23 nM.
The same measure, in the same setting: the figure for `CC(C)N1C[C@H](C(c2ccccc2)c2ccccc2)n2c(NS(C)(=O)=O)nc(=O)c(O)c2C1=O` [Example 1a-17, N-[(4S)-4-benzhydryl-9-hydroxy-2-isopropyl-1,8-dioxo-3,4-dihydropyrazino[1,2-c]-pyrimidin-6-yl]methanesulfonamide] is 1670 nM; for `COc1nc(=O)c(O)c2n1C(C1c3cccc(F)c3CCc3c(F)cccc31)CN(C(C)C)C2=O` (centres unmarked) [Example 1a-20, 4-(1,9-Difluoro-10,11-dihydro-5H-dibenzo[a,d][7]annulen-5-yl)-9-hydroxy-6-methoxy-2-(propan-2-yl)-3,4-dihydro-2H-pyrazino[1,2-c]pyrimidine-1,8-dione] it is 16 nM; for `COc1nc(=O)c(O)c2n1[C@@H](C1c3cccc(F)c3CCc3c(F)cccc31)[C@H](C)N(C)C2=O` [Example 1a-21, (3S,4S)-4-(1,9-Difluoro-10,11-dihydro-5H-dibenzo[a,d][7]annulen-5-yl)-9-hydroxy-6-methoxy-2,3-dimethyl-3,4-dihydro-2H-pyrazino[1,2-c]pyrimidine-1,8-dione] it is 15 nM.
Turning to `CC(C)N1C[C@H](C(c2ccccc2)c2ccccc2)n2c(c(O)c(=O)n(C)c2=O)C1=O` [Example 1b-1, (4S)-4-Benzhydryl-9-hydroxy-2-isopropyl-7-methyl-3,4-dihydropyrazino[1,2-c]pyrimidine-1,6,8-trione], the IC50 is 1660 nM.

Staying with this experiment, now noted: A549, isomers identified by X-ray analysis, read-out: IC50.
Regarding `COc1nc(=O)c(O)c2n1[C@@H]([C@H]1c3ccccc3CSc3ccccc31)CN(C(C)C)C2=O` (single isomer, unassigned) [Example 14], the IC50 was found to be 2 nM.
The same measure, in the same setting: the figure for `COc1nc(=O)c(O)c2n1[C@H]([C@@H]1c3ccccc3CSc3ccccc31)CN(C(C)C)C2=O` (single isomer, unassigned) [Example 15] is 34 nM.
Still for that read-out and setting: the figure for `COc1nc(=O)c(O)c2n1[C@@H]([C@@H]1c3ccccc3CSc3ccccc31)CN(C(C)C)C2=O` (single isomer, unassigned) [Example 16] is 4 nM; for `COc1nc(=O)c(O)c2n1[C@H]([C@H]1c3ccccc3CSc3ccccc31)CN(C(C)C)C2=O` (single isomer, unassigned) [Example 17] it is 28 nM.

Source of the values: patent publication US9988390B2, “Pyrimidone derivatives and their use in the treatment, amelioration or prevention of a viral disease” (F. Hoffmann-La Roche AG, priority 2015, dated 2018).
